From the supplement of paper PMC10307832

Assays:
Test in all cases: relative viability (nuclei count vs DMSO), 5 days (fraction); higher = more cells survive
[1] = compound: C1=CC2=NC=CN=C2C=C1/C=C/3\C(=O)NC(=O)S3 + CCNC(=O)c1noc(-c2cc(C(C)C)c(O)cc2O)c1-c1ccc(CN2CCOCC2)cc1 [Luminespib] (partner 0.01 µM)
Summary of the method: (§1)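 A single step with final 0.05% Triton X-100, 1% formaldehyde and 1 ug/ml Hoechst fixed the cells and stained nuclei 5 days after treatment. Lung cancer cell lines in 1536-well plates had been treated by pin tool the day after seeding with one drug alone or a fixed anchor-drug dose plus five library-drug doses (not always all listed) in √10 steps, and nuclei were counted on 4× images. Relative viability is the ratio of nuclei in treated wells to nuclei in vehicle wells, taken as the median of duplicate plates.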

[2] = compound: CCN1CCN(c2ccc(Nc3cc(N(C)C(=O)Nc4c(Cl)c(OC)cc(OC)c4Cl)ncn3)cc2)CC1 [BGJ398] + NC(=O)Nc1cc(-c2cccc(F)c2)sc1C(=O)N[C@H]1CCCNC1 [AZD7762] (partner 0.2 µM)
Summary of the method: as §1

[3] = compound: C1=CC2=NC=CN=C2C=C1/C=C/3\C(=O)NC(=O)S3 + CS(=O)(=O)N1CCN(Cc2cc3nc(-c4cccc5[nH]ncc45)nc(N4CCOCC4)c3s2)CC1 [Pictilisib] (partner 1 µM)
Summary of the method: as §1

[4] = compound: CCN1CCN(c2ccc(Nc3cc(N(C)C(=O)Nc4c(Cl)c(OC)cc(OC)c4Cl)ncn3)cc2)CC1 [BGJ398] + COc1cccc2cc(-c3nc([C@H]4CC[C@H](C(=O)O)CC4)n4ncnc(N)c34)[nH]c12 [OSI-027] (partner 0.5 µM)
Summary of the method: as §1

Cell Line | relative viability ([1]; first compound 0.02 µM) | relative viability ([1]; first compound 0.06325 µM) | relative viability ([1]; first compound 0.2 µM) | relative viability ([1]; first compound 0.6325 µM) | relative viability ([1]; first compound 2 µM) | relative viability ([2]; first compound 0.03162 µM) | relative viability ([2]; first compound 0.1 µM) | relative viability ([2]; first compound 0.3162 µM) | relative viability ([2]; first compound 1 µM) | relative viability ([3]; first compound 0.02 µM) | relative viability ([3]; first compound 0.06325 µM) | relative viability ([3]; first compound 0.2 µM) | relative viability ([3]; first compound 0.6325 µM) | relative viability ([3]; first compound 2 µM) | relative viability ([4]; first compound 0.01 µM) | relative viability ([4]; first compound 0.03162 µM) | relative viability ([4]; first compound 0.1 µM) | relative viability ([4]; first compound 0.3162 µM) | relative viability ([4]; first compound 1 µM) | relative viability ([2]; first compound 0.01 µM)
NCI-H358 | 0.265 | 0.35 | 0.347 | 0.224 | 0.182 | 0.473 | 0.591 | 0.507 | 0.725 | 0.357 | 0.344 | 0.402 | 0.38 | 0.258 | 0.611 | 0.793 | 0.81 | 0.798 | 1 | –
NCI-H441 | 0.294 | 0.334 | 0.332 | 0.364 | 0.255 | 1.07 | 1.25 | 0.961 | 1.56 | 0.453 | 0.48 | 0.447 | 0.573 | 0.477 | 0.621 | 0.626 | 0.758 | 0.564 | 0.62 | –
NCI-H460 | 0.0317 | 0.0415 | 0.0283 | 0.0303 | 0.0362 | 0.655 | 0.593 | 0.53 | 0.621 | 0.376 | 0.281 | 0.338 | 0.324 | 0.199 | 0.63 | 0.733 | 0.81 | 0.642 | 0.719 | 0.73
NCI-H596 | 1.13 | 1.13 | 1.15 | 0.991 | 0.939 | 0.993 | 0.893 | 0.911 | 0.799 | 0.465 | 0.384 | 0.394 | 0.419 | 0.377 | 0.761 | 0.693 | 0.655 | 0.648 | 0.621 | 1.1
NCI-H647 | 0.173 | 0.196 | 0.168 | 0.127 | 0.102 | 0.489 | 0.497 | 0.326 | 0.373 | 0.546 | 0.483 | 0.624 | 0.368 | 0.271 | 0.554 | 0.765 | 0.724 | 0.638 | 0.536 | 0.642
NCI-H650 | 0.719 | 0.872 | 0.755 | 0.709 | 0.627 | 0.934 | 0.941 | 0.875 | 1.04 | 0.816 | 0.829 | 0.917 | 0.868 | 0.783 | 0.477 | 0.519 | 0.535 | 0.505 | 0.503 | 0.877
NCI-H727 | 0.427 | 0.496 | 0.403 | 0.444 | 0.265 | 0.693 | 0.574 | 0.468 | 0.486 | 0.432 | 0.394 | 0.367 | 0.328 | 0.198 | 0.595 | 0.791 | 0.543 | 0.519 | 0.745 | 0.996
NCI-H838 | 0.295 | 0.446 | 0.267 | 0.26 | 0.324 | 0.915 | 1.04 | 0.782 | 0.756 | 0.395 | 0.446 | 0.429 | 0.369 | 0.322 | 0.297 | 0.357 | 0.376 | 0.338 | 0.294 | 0.861
